Reference: patent publication US20180237362A1, “NOVEL POLYGODIAL ANALOGS FOR THE TREATMENT OF CANCER AND OTHER PROLIFERATIVE DISEASES” (THE BOARD OF REGENTS OF THE UNIVERSITY OF TAXAS SYSTEM, priority 2015, published 2018)

Tests used:
Cal27-derived tumors = test: Mouse xenograft model, Cal27; type: in vivo, athymic nude mice
Protocol: Six-week old female athymic nude mice were used in laminar air-flow cabinet in pathogen-free conditions. They were acclimated for one week prior to the start of the study and kept at controlled temperature and humidity, with food and water. Mice were injected subcutaneously in the flank with 2×10^6 Cal27 cells or HeLa cells in 0.1 mL of sterile PBS. When the tumors reached 100 mm^3 (Cal27) and 150 mm^3 (HeLa), the mice were stratified into 4 groups, […], polygodial, P10, P3 and P27 at the concentrations noted in the figure legends.

U373 cells = test: Trypan blue viability assay, U373; type: cell-based, human; settings: 72 h treatment
Protocol: FIG. 9. Viability of U373 cells by trypan blue staining. U373 cells were treated for 72 h with 1 or 13 and stained with trypan blue. The experiment was conducted once in triplicate. After having taken pictures, cells were fixed with ice-cold methanol and again stained with trypan blue as internal positive control.
To confirm the results obtained in the videomicroscopy experiments, trypan blue assay was employed to detect necrotic and late apoptotic cells that had lost their plasma membrane integrity (FIG. 9). […] These observations support the results of the MTT assay and provide an explanation for the effectiveness of the C12-Wittig derivatives against cells, which display resistance to apoptosis induction. In contrast, at the concentrations necessary to induce cancer cell death 1 behaves as a toxic fixative compound of little promise as a potential drug.

[1] = tested on: MDR uterine sarcoma cell line MES-SA/Dx5; test: MTT antiproliferative assay, MDR MES-SA/Dx5; type: cell-based, human
Protocol: (§1) Human mammary carcinoma MCF-7 (ATCC HTB22) cells were cultured in RPMI supplemented with 10% FBS. The U87 cells (ATCC HTB-14) were cultured in DMEM culture medium, while the A549 cells (DSMZ ACC107) were cultured in RPMI culture medium supplemented with 10% heat-inactivated FBS. The GBM Hs683 (ATCC HTB-138) cells were cultivated in DMEM supplemented with 10% FBS. The human uterine sarcoma MES-SA (ATCC CRL1966) and MES-SA/D×5 cells were cultured in RPMI-1640 medium supplemented with 10% FBS with MES SA/D×5 maintained in the presence of 500 nM Doxorubicin (Sigma). SKMEL-28 cells (ATCC HTB72) and U373 GBM cells (ECACC 08061901) were cultured in RPMI culture medium supplemented with 10% heat-inactivated FBS. Cell culture media were supplemented with 4 mM glutamine (Lonza code BE17-605E), 100 μg/mL gentamicin (Lonza code 17-5182), and penicillin-streptomycin (200 units/ml and 200 μg/ml) (Lonza code 17-602E). The MDA-MB-231 (ATCC HTB-26) epithelial mammary adenocarcinoma cells were cultured in Eagle's minimum essential medium (EMEM; Invitrogen) containing 5% fetal calf serum (FCS, Cambrex), 2 mM L-glutamine (Invitrogen), 0.06% HEPES (Invitrogen) and penicillin (50 IU/ml)/streptomycin (50 µg/ml; Invitrogen) at 37° C. in a humidified atmosphere of 5% CO2 in air. Transformed mouse NPCs were cultured in suspension under neurosphere conditions at 37° C. in a humidified atmosphere of […] and 5% CO2 in DMEM F12 (Invitrogen 11320-074) supplemented with 1×B27 supplement (Invitrogen 17504-044), 5% penicillin-streptomycin (Biochrom 10378-017), 10 ng/ml EGF (R&D systems 236-EG), 10 ng/ml FGF (PeproTech 100-18B).
Antiproliferative properties of the synthesized compounds were evaluated by the MTT assay. All compounds were dissolved in DMSO at a concentration of either 100 μM or 50 μM prior to cell treatment. The cells were trypsinized and seeded at various cell concentrations depending on the cell type. The cells were grown for 24 h to 72 h, treated with compounds at concentrations ranging from 0.001 to 100 μM and incubated for 48 or 72 h in 100 or 200 μL media depending on the cell line used. The number of experiments and replicates varied depending on the cell line. Cells treated with 0.1% DMSO were used as a negative control; 1 μM PAO was used as a positive control.
Selection of the MES-SA/D×5 cell line was done according to Harker et al. (Harker & Sikic, 1985). The cells were split and allowed to adhere overnight. The next day cells were initially exposed to doxorubicin (DOX) at the concentration of 100 nM, which represented the GI50 concentration. The cells were maintained at this DOX concentration until their growth rate reached that of the untreated cells. The DOX concentration was then increased in two-fold increments following the same growth criteria at each concentration to a final DOX concentration of 500 nM. Each new DOX concentration required approximately 2 passages to reach the growth rate of the untreated cells.
Often, tumors initially respond to chemotherapy but eventually become refractory to the continuing treatment. Such acquired resistance commonly occurs through the development of a multi-drug resistant phenotype (MDR) (Gottesman et al., 2002 and Saraswathy & Gong, 2013) affecting many common chemotherapeutic agents, including the vinca alkaloids (Chen et al., 2000) and taxanes (Geney et al., 2002). In addition, the development of apoptosis resistance and MDR mechanisms is often related and concurrent (Ruefli et al., 2002 and Johnstone et al., 1999), and thus it was of interest to evaluate 5 against MDR cells. Towards this end, the MDR uterine sarcoma cell line MES-SA/D×5, established by growing the parent uterine sarcoma MES-SA in the presence of increasing concentrations of doxorubicin and resistant to multiple functionally and structurally unrelated molecules (Harker & Sikic, 1985), was utilized.

[2] = tested on: U87 glioblastoma cell cultures; test: MTT growth curves, U87; type: cell-based, human; settings: apoptosis-resistant U87 GBM; concentrations up to 100 μM
Protocol: as §1
Antiproliferative properties of the synthesized compounds were evaluated by the MTT assay. All compounds were dissolved in DMSO at a concentration of either 100 μM or 50 μM prior to cell treatment. The cells were trypsinized and seeded at various cell concentrations depending on the cell type. […]

HSC3 cells = test: Morphological changes, HSC3; type: cell-based, human; settings: P3 50 μM, 1 hour
Protocol: FIGS. 12A-B Morphological changes (20×) in HeLa cells (FIG. 12Aa-d) and HSC3 cells (FIG. 12Ba-d) with no treatment (a) or treated with Polygodial 80 μM (b), P10 4 μM (c), and P3 50 μM (d) for 1 hour. Differences in morphological changes between treatments indicate potentially unique mechanisms-of-action between polygodial and P10 (isomer), and P3 (novel analog).

Structure (SMILES) | anti-tumor effect, Cal27-derived tumors (Cal27-derived tumors; 40 μg/100 μl intra-tumor injection every other day for 18 days, no significant difference between polygodial and P27) | inflammatory response, Cal27 xenograft mice (Cal27-derived tumors; days 2-4, intra-tumor injection) | viability by trypan blue staining (U373 cells) | change of potency against MES-SA/Dx5 MDR cell line as compared with parent MES-SA cells ([1]; 48 h MTT) | GI50 ([1]; 48 h treatment, MTT assay, relative to DMSO control, read-out: GI50 in vitro values, MES-SA/Dx5) [µM] | effect on proliferation/viability of all cells, U87 [2] | morphological changes, HSC3 (HSC3 cells)
CC1(C)CCC[C@]2(C)[C@@H](C=O)C(C=O)=CC[C@@H]12 [Compound 1, Polygodial] | significant anti-tumor effects | notable inflammatory response | all blue-stained before methanol fixation |  |  |  | 
COC(=O)/C=C/C1=CC[C@H]2C(C)(C)CCC[C@]2(C)[C@H]1C=O [Compound 5] |  |  |  | little variation in the sensitivities of the two cell lines | 45 | growth inhibitory properties against most of the cells | apoptotic figures
